Measured values taken from patent US12448388B2, “PRMT5 inhibitors and uses thereof” (Gilead Sciences, Inc., priority 2023, dated 2025).
≈ marks a conversion by molar mass, not a printed value. Where two headings read alike, the source gives them in different places.

What was measured:
[1] = Cell viability assay (CellTiter-Glo, 7 days), HCT116 WT; type: cell-based; conditions: human, HCT116 WT cells, 7 days of treatment, CTG
Summary of the method: (§1)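 First, compounds are serially diluted in DMSO and dispensed into plates, which are frozen until seeding. Next, cells are added and incubated 7 days at 37 °C, 5% CO2, 90% humidity. Finally, CellTiter-Glo reagent is added and luminescence is measured to derive CC50.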

[2] = test system: HCT116 MTAP-deleted cell lines; experiment: Cell viability assay (CellTiter-Glo, 7 days), HCT116 MTAP-deleted; type: cell-based; conditions: for Selectivity: HCT116 WT CC50 versus HCT116 MTAP^del CC50; for plasma-adjusted CC50 (paCC50): paCC50 = CC50-HCT116-MTAP^del * (% free CCM/% free human plasma); for CC50: Homo sapiens, HCT116 MTAP-deleted
Summary of the method: as §1

[3] = PBS solubility (kinetic solubility from DMSO stocks); type: physicochemical; conditions: 22 °C, aqueous buffer, kinetic from dmso stock; 1x PBS pH 7.4, 1.0% DMSO, 24-hour incubation at ambient temperature
Summary of the method: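 Kinetic solubility in 1× PBS pH 7.4 with 1.0% final DMSO, maximum theoretical concentration 100 μM from 10 mM stock. After 24 h at ambient temperature (20.8-24.0 °C) the samples were vacuum-filtered and filtrates quantified by nitrogen detection against a calibration curve. Values were background-corrected and reported in μM and μg/mL.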

[4] = Pharmacokinetics in cassette in male Sprague-Dawley rats for Kp measurement; type: in vivo; conditions: 1 mg/kg, intravenous
Procedure: E.1 Test Animal: Male Sprague-Dawley Rats (225-300 g) with Indwelling Bilateral Jugular Vain Cannula (JVC/JVC) or Single Jugular Vein Cannula (JVC)
E.2 Pharmaceutical Formulation and Administration
Test compound was dissolved in the vehicle of 10% DMSO, 10% ethanol, 40% polyethylene glycol 300, and 40% propylene glycol to get 1 mg/mL test compound solution. The compound was administered by intravenous administration at a dose of 1 mL/kg. Fasting was not required.
• Anticoagulant: K2EDTA • Volume: approximately 225 μL blood at each bleed • Jugula vein via syringe and needle or another method (non-terminal samples) or exsanguination (cardiac puncture) under isoflurane (or CO2 inhalation if isoflurane is unavailable) anesthesia (terminal time points). Blood samples were collected into K2EDTA tubes • Tissue collection and processing: following the terminal blood collection, the brain and CSF were collected from each animal.

[5] = HCT-116, 168 h, 7 days of treatment, CTG, read-out: CC50-HCT116-MTAP^del
[6] = HCT-116, cell viability, class symbols, read-out: CC50
[7] = brain Kp = [brain]/[plasma], rat, read-out: Rat brain Kp
[8] = brain Kpu,u = Kp * (plasma free/rat brain free), read-out: Rat brain Kpu,u

solubility at 24 h [3] | Kp [4, 7] | Kp [4, 8] | Structure (SMILES) | CC50 at 7 days [1] | Selectivity [2] | plasma-adjusted CC50 (paCC50) ([2]; HCT-116) | CC50 [2, 5] | CC50 [2, 6] | CC50 ([2]; HCT-116, cell viability assay, class symbols, read-out: CC50)
1.7 µM (≈ 0.8 µg/mL) | 0.37 | 0.11 | Nc1nc2cnc(C(=O)N3CCC[C@@H]4Oc5cc(OC(F)(F)F)ccc5[C@@H]43)cc2n2cncc12 [Ff-341, (4-aminoimidazo[1,5-a]pyrido[3,4-e]pyrazin-8-yl)((4aS,9bS)-7-(trifluoromethoxy)-3,4,4a,9b-tetrahydrobenzofuro[3,2-b]pyridin-1(2H)-yl)methanone] | 710 nM | 79 | 150 nM | 9 nM | < 100 nM | 
34.9 µM (≈ 15.9 µg/mL) | 0.32 |  | Nc1nc2cnc(C(=O)N3CC[C@H]4C[C@@H]3c3ccc(C(F)(F)F)cc3O4)cc2n2cncc12 [Ff-367, (4-aminoimidazo[1,5-a]pyrido[3,4-e]pyrazin-8-yl)((2S,6R)-9-(trifluoromethyl)-3,4-dihydro-2H-2,6-methanobenzo[b][1,5]oxazocin-5(6H)-yl)methanone] | 925 nM | 77 | 199 nM | 12 nM | < 100 nM | 
< 1 µM | 0.67 | 0.15 | Cc1ncn2c1c(N)nc1cnc(C(=O)N3CCC[C@@H]4Oc5cc(C(F)(F)F)ccc5[C@@H]43)cc12 [Ff-499, (4-amino-3-methylimidazo[1,5-a]pyrido[3,4-e]pyrazin-8-yl)((4aS,9bS)-7-(trifluoromethyl)-3,4,4a,9b-tetrahydrobenzofuro[3,2-b]pyridin-1(2H)-yl)methanone] | 897 nM | 69 | 168 nM | 13 nM |  | < 100 nM
